The text below walks through data of US10633379B2, “Bromodomain inhibitors” (AbbVie Inc., priority 2016, dated 2020).

Molecules are shown by their SMILES.

One assay addresses BRD4 (BDI_K57-E168) (Homo sapiens (Human), UniProt O60885). Briefly: TR-FRET bromodomain binding assay, BRD4 BDI. The following applies: mean Ki, calculated from IC50, probe Kd and probe concentration. The procedure, abridged: (§1)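 Probe displacement measured by TR-FRET after 1 h at room temperature, in 20 mM sodium phosphate pH 6.0 and 2% DMSO. BDI used 12 nM protein with 100 nM probe, BDII 4 nM with 30 nM probe, each with 1 nM europium antibody. Ki derived from fitted IC50, probe Kd and probe level.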

Another assay concerns the target BRD4 (BDII_E352-M457) (Homo sapiens (Human), UniProt O60885). Briefly: TR-FRET bromodomain binding assay, BRD4 BDII. The following applies: mean Ki, calculated from IC50, probe Kd and probe concentration. The procedure, abridged: as §1

As usually defined, the Ki is the equilibrium dissociation constant of an inhibitor or competing ligand from its target. Turning to `Cc1cc(F)cc(Cl)c1Oc1ccc(C(C)(C)O)cc1-c1cn(C)c(=O)c2[nH]c(C(=O)NC(C)(C)C(F)(F)F)cc12` [Example 57, 4-[2-(2-chloro-4-fluoro-6-methylphenoxy)-5-(2-hydroxypropan-2-yl)phenyl]-6-methyl-7-oxo-N-(1,1,1-trifluoro-2-methylpropan-2-yl)-6,7-dihydro-1H-pyrrolo[2,3-c]pyridine-2-carboxamide], the figures for the Ki on BRD4 (BDI_K57-E168) and at BRD4 (BDII_E352-M457) were 2890 nM and 17.5 nM, respectively.

On to `Cc1cc(F)cc(Cl)c1Oc1ncc(C(C)(C)O)cc1-c1cn(C)c(=O)c2[nH]c(C(=O)NC(C)(C)C(F)(F)F)cc12` [Example 58, 4-[2-(2-chloro-4-fluoro-6-methylphenoxy)-5-(2-hydroxypropan-2-yl)pyridin-3-yl]-6-methyl-7-oxo-N-(1,1,1-trifluoro-2-methylpropan-2-yl)-6,7-dihydro-1H-pyrrolo[2,3-c]pyridine-2-carboxamide], for which the inhibition constant (Ki) was 723 nM on BRD4 (BDI_K57-E168) and 8.1 nM on BRD4 (BDII_E352-M457).

Turning to `Cc1cc(F)cc(C)c1Oc1ccc(C(C)(C)O)cc1-c1cn(C)c(=O)c2[nH]c(C(=O)NC3(C)CC3(F)F)cc12` (centres unmarked) [Example 60, N-(2,2-difluoro-1-methylcyclopropyl)-4-[2-(4-fluoro-2,6-dimethylphenoxy)-5-(2-hydroxypropan-2-yl)phenyl]-6-methyl-7-oxo-6,7-dihydro-1H-pyrrolo[2,3-c]pyridine-2-carboxamide], the Ki at BRD4 (BDI_K57-E168) is 3510 nM; at BRD4 (BDII_E352-M457), 7.5 nM.

Regarding `Cc1cc(F)cc(C)c1Oc1ncc(C(C)(C)O)cc1-c1cn(C)c(=O)c2[nH]c(C(=O)NC3(C)CC3(F)F)cc12` (centres unmarked) [Example 61, N-(2,2-difluoro-1-methylcyclopropyl)-4-[2-(4-fluoro-2,6-dimethylphenoxy)-5-(2-hydroxypropan-2-yl)pyridin-3-yl]-6-methyl-7-oxo-6,7-dihydro-1H-pyrrolo[2,3-c]pyridine-2-carboxamide], the Ki on BRD4 (BDI_K57-E168) was 1580 nM; on BRD4 (BDII_E352-M457), 12 nM.

Turning to `Cc1cc(F)cc(Cl)c1Oc1ncc(C(C)(C)O)cc1-c1cn(C)c(=O)c2[nH]c(C(=O)NC3(C)CC3(F)F)cc12` (centres unmarked) [Example 62, 4-[2-(2-chloro-4-fluoro-6-methylphenoxy)-5-(2-hydroxypropan-2-yl)pyridin-3-yl]-N-(2,2-difluoro-1-methylcyclopropyl)-6-methyl-7-oxo-6,7-dihydro-1H-pyrrolo[2,3-c]pyridine-2-carboxamide], the figures for the inhibition constant (Ki) on BRD4 (BDI_K57-E168) and at BRD4 (BDII_E352-M457) were 1110 nM and 10.2 nM, respectively.

Turning to `Cc1cccc(Cl)c1Oc1ncc(C(C)(C)O)cc1-c1cn(C)c(=O)c2[nH]c(C(=O)NC34CC(C3)C4)cc12` [Example 63, N-(bicyclo[1.1.1]pentan-1-yl)-4-[2-(2-chloro-6-methylphenoxy)-5-(2-hydroxypropan-2-yl)pyridin-3-yl]-6-methyl-7-oxo-6,7-dihydro-1H-pyrrolo[2,3-c]pyridine-2-carboxamide], the figures for the Ki at BRD4 (BDI_K57-E168) and on BRD4 (BDII_E352-M457) were 406 nM and 1.5 nM, respectively.

Regarding `CCNC(=O)c1cc2c(-c3cc(C(C)(C)O)c(F)cc3Oc3c(C)cccc3C)cn(C)c(=O)c2[nH]1` [Example 64, 4-[2-(2,6-dimethylphenoxy)-4-fluoro-5-(2-hydroxypropan-2-yl)phenyl]-N-ethyl-6-methyl-7-oxo-6,7-dihydro-1H-pyrrolo[2,3-c]pyridine-2-carboxamide], the Ki on BRD4 (BDI_K57-E168) is 181 nM; on BRD4 (BDII_E352-M457), 0.4 nM.

Regarding `CCNC(=O)c1cc2c(-c3cc(C(C)(C)O)c(F)cc3Oc3c(C)cc(F)cc3C)cn(C)c(=O)c2[nH]1` [Example 65, N-ethyl-4-[4-fluoro-2-(4-fluoro-2,6-dimethylphenoxy)-5-(2-hydroxypropan-2-yl)phenyl]-6-methyl-7-oxo-6,7-dihydro-1H-pyrrolo[2,3-c]pyridine-2-carboxamide], the inhibition constant (Ki) was 222 nM on BRD4 (BDI_K57-E168) and 1.3 nM on BRD4 (BDII_E352-M457).

As to `CCNC(=O)c1cc2c(-c3cc(C(C)(O)CO)ccc3Oc3c(C)cccc3C)cn(C)c(=O)c2[nH]1` (centres unmarked) [Example 66, 4-[5-(1,2-dihydroxypropan-2-yl)-2-(2,6-dimethylphenoxy)phenyl]-N-ethyl-6-methyl-7-oxo-6,7-dihydro-1H-pyrrolo[2,3-c]pyridine-2-carboxamide], the inhibitory constant (Ki) was 289 nM at BRD4 (BDI_K57-E168) and 1.4 nM at BRD4 (BDII_E352-M457).

`CCNC(=O)c1cc2c(-c3cc(C(C)(O)CCO)ccc3Oc3c(C)cccc3C)cn(C)c(=O)c2[nH]1` (centres unmarked) [Example 67, 4-[5-(2,4-dihydroxybutan-2-yl)-2-(2,6-dimethylphenoxy)phenyl]-N-ethyl-6-methyl-7-oxo-6,7-dihydro-1H-pyrrolo[2,3-c]pyridine-2-carboxamide]: the Ki on BRD4 (BDI_K57-E168) is 259 nM; at BRD4 (BDII_E352-M457), 1.1 nM.

With `CCNC(=O)c1cc2c(-c3cc(C(C)(C)O)ccc3Oc3c(C)cccc3C(F)F)cn(C)c(=O)c2[nH]1` [Example 70, 4-{2-[2-(difluoromethyl)-6-methylphenoxy]-5-(2-hydroxypropan-2-yl)phenyl}-N-ethyl-6-methyl-7-oxo-6,7-dihydro-1H-pyrrolo[2,3-c]pyridine-2-carboxamide], the inhibitory constant (Ki) is 1340 nM on BRD4 (BDI_K57-E168) and 3.7 nM at BRD4 (BDII_E352-M457).

With `Cc1cccc(C(F)F)c1Oc1ccc(C(C)(C)O)cc1-c1cn(C)c(=O)c2[nH]c(C(=O)NC(C)(C)C)cc12` [Example 71, N-tert-butyl-4-{2-[2-(difluoromethyl)-6-methylphenoxy]-5-(2-hydroxypropan-2-yl)phenyl}-6-methyl-7-oxo-6,7-dihydro-1H-pyrrolo[2,3-c]pyridine-2-carboxamide], the inhibition constant Ki at BRD4 (BDI_K57-E168) was 2310 nM; on BRD4 (BDII_E352-M457), 7.5 nM.

Take `CCNC(=O)c1cc2c(-c3cc(C(C)(C)O)ccc3Oc3c(C)cc(Br)cc3C)cn(C)c(=O)c2[nH]1` [Example 72, 4-[2-(4-bromo-2,6-dimethylphenoxy)-5-(2-hydroxypropan-2-yl)phenyl]-N-ethyl-6-methyl-7-oxo-6,7-dihydro-1H-pyrrolo[2,3-c]pyridine-2-carboxamide]: the Ki is 794 nM on BRD4 (BDI_K57-E168) and 1.3 nM at BRD4 (BDII_E352-M457).

For `CCNC(=O)c1cc2c(-c3cc(C(C)(C)O)ccc3Oc3c(C)cc(C#N)cc3C)cn(C)c(=O)c2[nH]1` [Example 73, 4-[2-(4-cyano-2,6-dimethylphenoxy)-5-(2-hydroxypropan-2-yl)phenyl]-N-ethyl-6-methyl-7-oxo-6,7-dihydro-1H-pyrrolo[2,3-c]pyridine-2-carboxamide], the inhibition constant (Ki) is 417 nM at BRD4 (BDI_K57-E168) and 1.5 nM at BRD4 (BDII_E352-M457).

`CCNC(=O)c1cc2c(-c3cc(C(C)(C)O)ccc3Oc3c(C)ccnc3C)cn(C)c(=O)c2[nH]1` [Example 74, 4-{2-[(2,4-dimethylpyridin-3-yl)oxy]-5-(2-hydroxypropan-2-yl)phenyl}-N-ethyl-6-methyl-7-oxo-6,7-dihydro-1H-pyrrolo[2,3-c]pyridine-2-carboxamide]: the Ki is 551 nM on BRD4 (BDI_K57-E168) and 3 nM on BRD4 (BDII_E352-M457).

On to `Cc1cc(F)cc(C)c1Oc1ccc(C(C)(C)O)cc1-c1cn(C)c(=O)c2[nH]c(C(=O)NC34CC(C3)C4)cc12` [Example 75, N-(bicyclo[1.1.1]pentan-1-yl)-4-[2-(4-fluoro-2,6-dimethylphenoxy)-5-(2-hydroxypropan-2-yl)phenyl]-6-methyl-7-oxo-6,7-dihydro-1H-pyrrolo[2,3-c]pyridine-2-carboxamide], for which the Ki at BRD4 (BDI_K57-E168) is 743 nM; at BRD4 (BDII_E352-M457), 2.9 nM.

As to `Cc1cccc(C)c1Oc1ccc(C(C)(C)O)nc1-c1cn(C)c(=O)c2[nH]c(C(=O)NC(C)(C)C)cc12` [Example 76, N-tert-butyl-4-[3-(2,6-dimethylphenoxy)-6-(2-hydroxypropan-2-yl)pyridin-2-yl]-6-methyl-7-oxo-6,7-dihydro-1H-pyrrolo[2,3-c]pyridine-2-carboxamide], the results for the Ki at BRD4 (BDI_K57-E168) and on BRD4 (BDII_E352-M457) were 927 nM and 8.7 nM, respectively.

As to `CCNC(=O)c1cc2c(-c3nc(C(C)(C)O)ccc3Oc3c(C)cccc3C)cn(C)c(=O)c2[nH]1` [Example 77, 4-[3-(2,6-dimethylphenoxy)-6-(2-hydroxypropan-2-yl)pyridin-2-yl]-N-ethyl-6-methyl-7-oxo-6,7-dihydro-1H-pyrrolo[2,3-c]pyridine-2-carboxamide], the Ki was 606 nM on BRD4 (BDI_K57-E168) and 2.2 nM on BRD4 (BDII_E352-M457).

Consider `CCNC(=O)c1cc2c(-c3cc(C(C)(O)CF)cnc3Oc3c(C)cc(F)cc3C)cn(C)c(=O)c2[nH]1` (centres unmarked) [Example 78, N-ethyl-4-[2-(4-fluoro-2,6-dimethylphenoxy)-5-(1-fluoro-2-hydroxypropan-2-yl)pyridin-3-yl]-6-methyl-7-oxo-6,7-dihydro-1H-pyrrolo[2,3-c]pyridine-2-carboxamide], for which the figures for the inhibitory constant (Ki) on BRD4 (BDI_K57-E168) and on BRD4 (BDII_E352-M457) were 253 nM and 2.2 nM, respectively.

As for `CCNC(=O)c1cc2c(-c3cc(C(C)(O)C(F)(F)F)cnc3Oc3c(C)cc(F)cc3C)cn(C)c(=O)c2[nH]1` (centres unmarked) [Example 79, N-ethyl-4-[2-(4-fluoro-2,6-dimethylphenoxy)-5-(1,1,1-trifluoro-2-hydroxypropan-2-yl)pyridin-3-yl]-6-methyl-7-oxo-6,7-dihydro-1H-pyrrolo[2,3-c]pyridine-2-carboxamide], the Ki is 225 nM on BRD4 (BDI_K57-E168) and 2.5 nM on BRD4 (BDII_E352-M457).

For `CCNC(=O)c1cc2c(-c3cc(C(O)(C(F)(F)F)C(F)(F)F)cnc3Oc3c(C)cc(F)cc3C)cn(C)c(=O)c2[nH]1` [Example 80, N-ethyl-4-[2-(4-fluoro-2,6-dimethylphenoxy)-5-(1,1,1,3,3,3-hexafluoro-2-hydroxypropan-2-yl)pyridin-3-yl]-6-methyl-7-oxo-6,7-dihydro-1H-pyrrolo[2,3-c]pyridine-2-carboxamide], the values for the Ki on BRD4 (BDI_K57-E168) and on BRD4 (BDII_E352-M457) were 486 nM and 5.2 nM, respectively.

Take `CCNC(=O)c1cc2c(-c3cc(C(C)(C)O)ccc3Oc3c(C)cccc3F)cn(C)c(=O)c2[nH]1` [Example 81, N-ethyl-4-[2-(2-fluoro-6-methylphenoxy)-5-(2-hydroxypropan-2-yl)phenyl]-6-methyl-7-oxo-6,7-dihydro-1H-pyrrolo[2,3-c]pyridine-2-carboxamide]: the figures for the Ki on BRD4 (BDI_K57-E168) and at BRD4 (BDII_E352-M457) were 43 nM and 1.1 nM, respectively.
